Assay results reported in PubChem BioAssay (NCI).
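Results reflect a 48-hour exposure of cells in 96-well plates to compound at five concentrations. GI50 marks 50% less growth. TGI is the concentration that stops growth completely.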

Assays:
Assay in all cases: NCI tumour cell line growth inhibition, 48 h
786-0 renal = tested on: 786-0 renal
HCT-116 colon = tested on: HCT-116 colon
HS 578T breast = tested on: HS 578T breast
K-562 leukemia = tested on: K-562 leukemia
MDA-MB-435 = tested on: MDA-MB-435
NCI-H23 lung = tested on: NCI-H23 lung
NCI/ADR-RES ovarian = tested on: NCI/ADR-RES ovarian
OVCAR-3 ovarian = tested on: OVCAR-3 ovarian
OVCAR-5 ovarian = tested on: OVCAR-5 ovarian
RXF 393 renal = tested on: RXF 393 renal
NCI-H460 lung = tested on: NCI-H460 lung

Compound | TGI (786-0 renal) [µM] | TGI (HCT-116 colon) [µM] | TGI (HS 578T breast) [µM] | TGI (K-562 leukemia) [µM] | TGI (MDA-MB-435) [µM] | TGI (NCI-H23 lung) [µM] | TGI (NCI/ADR-RES ovarian) [µM] | TGI (OVCAR-3 ovarian) [µM] | TGI (OVCAR-5 ovarian) [µM] | TGI (RXF 393 renal) [µM] | TGI (NCI-H460 lung) [µM] | GI50 (HCT-116 colon) [µM] | GI50 (HS 578T breast) [µM] | GI50 (K-562 leukemia) [µM] | GI50 (MDA-MB-435) [µM] | GI50 (NCI-H23 lung) [µM] | GI50 (NCI-H460 lung) [µM] | GI50 (OVCAR-3 ovarian) [µM] | GI50 (OVCAR-5 ovarian) [µM] | GI50 (RXF 393 renal) [µM]
O[C@@H]1[C@H](OC2c3ccccc3-c3ccccc32)[C@H](OCc2ccccc2)[C@@H]2OC[C@H]1O2 | 42.1 | > 100 | > 100 | > 100 | > 100 | > 100 | > 100 | > 100 | > 100 | > 100 |  |  |  |  |  |  |  |  |  | 
COC(=O)/C=C1\C(CO[Si](C)(C)C(C)(C)C)OC(n2ccc(=O)[nH]c2=O)C1O (centres undefined) | 16.6 | 16.9 |  | > 95.4 | > 43 | 55.3 | 38.4 | 54.5 | 50.9 | 32.5 | 37.8 |  |  |  |  |  |  |  |  | 
CCOC(=O)c1cn(-c2ccc([N+](=O)[O-])cc2)c(=S)n2c1nc1ccccc12 | > 100 | > 100 |  | > 100 | > 100 | > 100 | > 100 | > 100 | > 100 | > 100 | > 100 |  |  |  |  |  |  |  |  | 
N#CCC(=O)N/N=C\C(O)C(O)C(O)C(O)CO (centres undefined) | > 100 |  | > 100 | > 100 | > 100 | > 100 | > 100 | > 100 | > 100 | > 100 | > 100 |  |  |  |  |  |  |  |  | 
Cc1nn(C(=O)Cc2ccccc2)c2c1C(c1ccc(/C=C/c3ccccc3)cc1)SC(N)=N2 (centres undefined) | > 100 | > 100 | > 100 | > 100 | > 100 | > 100 |  |  |  |  | > 100 |  |  |  |  |  |  |  |  | 
Cc1cnc2[nH]c(-c3cccc4ccccc34)cc(=O)c2c1 | > 100 | > 100 | > 100 | > 100 | 0.000499 | > 100 | > 100 |  | > 100 | 0.0923 | > 100 |  |  |  |  |  |  |  |  | 
C#CCN(C(=O)C(F)(F)F)C(/C=C\C(=O)OC)(C(=O)OCC)C(=O)OCC | > 100 |  | > 100 | > 100 | > 100 | > 100 | > 100 | > 100 | > 100 | > 100 | > 100 |  |  |  |  |  |  |  |  | 
O=[N+]([O-])c1ccc(N/N=C\c2cc(Br)ccc2O)nc1 |  | 2.44 | 8.93 | > 100 | > 100 | 10.9 |  | 2.3 | > 100 | 9.95 | 2.72 | 0.451 | 2.13 | 0.612 | 1.39 | 1.23 | 0.636 | 0.525 | 5.51 | 2.17
CC(=O)Nc1nc2c(=O)c3ccccc3sc2s1 | > 100 | > 100 | > 100 | > 100 |  | > 100 | > 100 | > 100 | > 100 | > 100 | > 100 |  |  |  |  |  |  |  |  | 
C/C=C1/C=CC2c3[nH]c4ccccc4c3CCN2C1 (centres undefined) | > 400 | > 400 |  | > 400 |  | > 400 |  | > 400 |  | > 400 | > 400 |  |  |  |  |  |  |  |  | 
c1ccc(C(NC2=NCCO2)C2CC2)cc1 (centres undefined) | > 100 | > 100 | > 100 |  | > 100 | > 100 | > 100 | > 100 | > 100 | > 100 | > 100 |  |  |  |  |  |  |  |  | 
Cc1ccc2c(c1C)CC1(Cc3ccc(C)c(C)c3C1=O)C2=O (centres undefined) | > 100 | > 100 | > 100 | > 100 | > 100 |  | > 100 | > 100 | > 100 | 54.3 | > 100 |  |  |  |  |  |  |  |  | 
S=c1[nH]nc(Cn2c3ccc(Br)cc3c3nc4ccccc4nc32)o1 | > 100 | > 100 |  | > 100 | > 31.6 | > 100 | > 100 | > 73.7 | > 100 | > 60 | > 100 |  |  |  |  |  |  |  |  | 
COC(=O)C1(CCCCl)CCCN1C(=O)OC(C)(C)C (centres undefined) | > 100 | > 100 |  | > 100 | > 100 | > 100 | > 100 | > 100 | > 100 | > 100 | > 100 |  |  |  |  |  |  |  |  | 
NC(Cc1cc(I)c(Oc2ccc(O)c(I)c2)c(I)c1)C(=O)O (centres undefined) | > 100 | > 100 | > 100 |  | > 100 | > 100 | > 100 | > 100 | > 100 | > 100 |  |  |  |  |  |  |  |  |  | 
CCOC(OCC)(OCC)C(Br)CC (centres undefined) | 37.8 | 19 |  | > 100 |  | > 100 |  | > 100 | > 100 | > 100 | > 100 |  |  |  |  |  |  |  |  | 
CCN(C(=O)N[C@@H](CC(C)C)C(=O)NCC(=O)OC)c1ccccc1 | > 100 | > 100 |  | > 100 | > 100 | > 100 | > 100 | > 100 | > 100 | > 100 | > 100 |  |  |  |  |  |  |  |  | 
O=[N+]([O-])c1ccc2c3c1[C@@H]1O[C@@H]1c1cccc(c1-3)[C@@H]1O[C@H]21 | 7.85 | 5.95 | 19.7 | > 100 | 5.22 | 11.6 | > 38.5 | 10.9 | 31.3 | 16.8 |  |  |  |  |  |  |  |  |  | 
O=C(O)c1ccccc1/C=C1\Cc2cc3c(cc2C1=O)CCC3 | 70.5 | 76.6 |  | 51.7 | 51.5 | 58.8 | 66.2 | > 100 | > 100 | 56.5 | 81.9 |  |  |  |  |  |  |  |  | 
Clc1ccc(C(OCn2ccnc2)c2nc3ccccc3[nH]2)c(Cl)c1 (centres undefined) | > 100 | > 100 | > 100 | > 100 | > 100 | > 100 | > 100 | > 100 | > 100 |  | > 100 |  |  |  |  |  |  |  |  | 
CCOC(=O)c1nc2ccc(C(F)(F)F)cc2nc1Oc1ccc(OC)cc1 | > 100 | > 100 | > 100 | > 100 | > 100 |  | > 100 | > 100 | > 100 | > 100 | > 100 |  |  |  |  |  |  |  |  | 
CC(=O)n1c2ccc(Br)cc2c2nc3ccccc3nc21 | > 100 | > 100 |  | > 100 | > 100 | > 100 | > 100 | > 100 | > 100 | > 100 | > 100 |  |  |  |  |  |  |  |  | 
